Read-outs that look alike come from different tables or passages of the source.
Legend:
[1] = cited from earlier work; for Epsilon: ideal solvent
[2] = Absorption characteristics of photosensitizers with peak absorptions in visible light (Lambda Max, Epsilon); format: physicochemical; settings: determined in water
Text: Examples of photosensitizers having peak absorptions in visible light and their absorption characteristics is: […]

[3] = ideal solvent; cited from earlier work
[4] = cited from earlier work

Compound | Lambda Max ([1]; first or only peak) | Epsilon ([2]; first or only peak) | Singlet Oxygen QY [3] | Epsilon ([1]; first or only peak) | Epsilon ([1]; second peak (after the slash)) | Lambda Max ([1]; second peak (after the slash)) | water solubility [4] | Epsilon ([2]; second peak (after the slash))
CCNc1cc2[s+]c3cc(NCC)c(C)cc3nc2cc1C.[Cl-] [New MB] | 630 | 64,000 | – | – | – | – | – | –
O.O=C([O-])c1ccccc1-c1c2cc(I)c(=O)c(I)c-2oc2c(I)c([O-])c(I)cc12.[Na+].[Na+] [Erythrosin B] | 530 | – | 0.63 | 82,000 | – | – | – | –
O=C([O-])c1c(Cl)c(Cl)c(Cl)c(Cl)c1-c1c2cc(I)c(=O)c(I)c-2oc2c(I)c([O-])c(I)cc12.[Na+].[Na+] [Rose Bengal, Rose Bengal (CAS #632-69-9)] | 562 | – | 0.76 | 90,000 | – | – | – | –
C=Cc1c(C)c2cc3nc(c(CC(=O)N[C@@H](CC(=O)O)C(=O)O)c4[nH]c(cc5nc(cc1[nH]2)C(C)=C5CC)c(C)c4C(=O)O)[C@@H](CCC(=O)O)[C@@H]3C [Talaporfin (LS11, MACE, NPs6), Talaporfin] | 400 | – | 0.77 | 180,000 | 40,000 | 654 | – | –
CN(C)c1ccc2nc3ccc(=[N+](C)C)cc-3sc2c1 [Methylene Blue, methylene blue (CAS #61-73-4)] | 665 | 48,000 | 0.52 | – | – | – | – | –
Verteporfin | 435 | – | – | ~70,000 | – | – | – | –
IRDye 700DX HHS Ester [IR700] | – | – | – | – | – | – | good solubility | –
C=Cc1c(C)c2cc3nc(c(CC(=O)O)c4[nH]c(cc5nc(cc1[nH]2)C(C)=C5CC)c(C)c4C(=O)O)[C@@H](CCC(=O)O)[C@@H]3C [Chlorin e6, chlorin e6] | 400 | 150,000 | 0.65 | – | – | 650 | – | 30,000
O=C([O-])c1ccccc1-c1c2cc(Br)c(=O)c(Br)c-2oc2c(Br)c([O-])c(Br)cc12.[Na+].[Na+] [Eosin Y] | 525 | – | – | 112,000 | – | – | – | –

From US20220154404A1, “Active Materials, Surfaces, Surface Treatments And Methods For Packaging Materials, Boxes, And Containers Using Photosensitizers For Pathogen Reduction” (Mi2 Holdings LLC, priority 2020, published 2022)
